Source: patent US9433621B2, “Substituted pyridine and pyrimidine derivatives and their use in treating viral infections” (Merck Sharp & Dohme Corp., priority 2010, dated 2016)

system: HCV replicon; test: Cell-Based HCV Replicon Assay; settings: Hepatitis C virus; HCV Replicon assay, EC90 given as numeric bound, Table VI; read-out: EC90
Summary of the method: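 EC50 and EC90 taken from sigmoid fits of ΔCT (5B minus GAPDH) as the concentrations raising ΔCT by 1 and 3.2 over baseline, via multiplex real-time RT-PCR on lysates after 3 days. Replicon cells at 5000/well; 10 two-fold dilutions from 25–1 μM, 0.5% DMSO, 10% FBS.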

Row | Structure (SMILES) | EC90
1 | COCCNc1nc(C)c(-c2nc3c(C)nccc3s2)c(N2C[C@H]3C[C@@H]2[C@H](O)[C@@H]3O)n1 [Example 5214] | > 1000 nM

same assay, conditions: Hepatitis C virus; HCV Replicon assay, EC90 range, Table VI; read-out: EC90

Row | Structure (SMILES) | EC90
2 | Cc1nc(N[C@H](C)c2c(F)c(F)c(C)c(F)c2F)nc(N[C@@H]2C[C@H](CS(C)(=O)=O)[C@@H](O)[C@H]2O)c1-c1nc2c(C3CC3)nccc2s1 [Example 5205] | < 500 nM
3 | Cc1nc(NCc2c(F)cccc2F)nc(N[C@@H]2C[C@H](COc3c(F)cccc3F)[C@@H](O)[C@H]2O)c1-c1nc2c(C)nccc2s1 [Example 5206] | < 500 nM
4 | Cc1nc(N[C@H](C)C2CC2)nc(N[C@@H]2C[C@H](COc3c(F)cccc3F)[C@@H](O)[C@H]2O)c1-c1nc2c(C)nccc2s1 [Example 5207] | < 500 nM
5 | Cc1nc(NCCCOCC(F)(F)F)nc(N[C@@H]2C[C@H](C(C)(C)O)[C@@H](O)[C@H]2O)c1-c1nc2c(C)nccc2s1 [Example 5208] | < 500 nM
6 | Cc1nc(NCc2c(F)cccc2F)nc(N[C@@H]2C[C@H](CS(=O)(=O)c3cc(F)cc(F)c3)[C@@H](O)[C@H]2O)c1-c1nc2c(N)nccc2s1 [Example 5209] | < 500 nM
7 | Cc1nc(NCC(F)(F)C(F)(F)C(F)(F)F)nc(N[C@@H]2C[C@H](C(C)(C)O)[C@@H](O)[C@H]2O)c1-c1nc2c(N)nccc2s1 [Example 5210] | < 500 nM
8 | Cc1nc(N)nc(N[C@@H]2C[C@H](CS(=O)(=O)c3cc(F)cc(F)c3)[C@@H](O)[C@H]2O)c1-c1nc2c(N)nccc2s1 [Example 5211] | < 500 nM
9 | Cc1nc(N)nc(N[C@@H]2C[C@H](COc3c(F)cccc3F)[C@@H](O)[C@H]2O)c1-c1nc2c(C)nccc2s1 [Example 5212] | < 500 nM
10 | Cc1nc(NCC(F)(F)C(F)(F)F)nc(N[C@@H]2C[C@H](COc3c(F)cccc3F)[C@@H](O)[C@H]2O)c1-c1nc2c(C)nccc2s1 [Example 5213] | < 500 nM
11 | COCCNc1nc(C)c(-c2nc3c(C)nccc3s2)c(NC2(C)CCC2)n1 [Example 5215] | < 500 nM
12 | Cc1nc(NCc2c(F)cccc2F)nc(NC2(C)CCC2)c1-c1nc2c(C)nccc2s1 [Example 5216] | < 500 nM
13 | CO[C@H]1COC[C@@H]1Nc1nc(C)c(-c2nc3c(C)nccc3s2)c(N[C@@H]2C[C@H](C(C)(C)O)[C@@H](O)[C@H]2O)n1 [Example 5218] | < 500 nM
14 | Cc1nc(NCCO)nc(NC2(C)CCC2)c1-c1nc2c(C)nccc2s1 [Example 5219] | < 500 nM
15 | Cc1nc(NCC(F)(F)C(F)(F)F)nc(NC2(C)CCC2)c1-c1nc2c(C)nccc2s1 [Example 5220] | 500 to 5000 nM
16 | Cc1nc(NCC(C)(F)F)nc(N[C@@H]2C[C@H](C(C)(C)O)[C@@H](O)[C@H]2O)c1-c1nc2c(C)nccc2s1 [Example 5221] | < 500 nM
17 | Cc1nc(NCC2(O)CCCC2)nc(NC2(C)CCC2)c1-c1nc2c(C)nccc2s1 [Example 5222] | < 500 nM
18 | Cc1nc(NCC(F)(F)C(F)(F)F)nc(N[C@@H]2C[C@H](CS(C)(=O)=O)[C@@H](O)[C@H]2O)c1-c1nc2c(C3CC3)nccc2s1 [Example 5223] | < 500 nM
19 | Cc1nc(NCC(F)(F)C(F)(F)F)nc(N[C@@H]2C[C@H](CO)[C@@H](O)[C@H]2O)c1-c1nc2c(C3CC3)nccc2s1 [Example 5224] | < 500 nM
20 | Cc1nc(NCC(F)(F)C(F)(F)F)nc(N[C@@H]2C[C@H](CS(=O)(=O)c3ccc(F)cc3)[C@@H](O)[C@H]2O)c1-c1nc2c(C3CC3)nccc2s1 [Example 5225] | < 500 nM

Row | Structure (SMILES) | EC90
21 | CO[C@@H](CNc1nc(C)c(-c2nc3c(C)nccc3s2)c(N[C@@H]2C[C@H](CO)[C@@H](O)[C@H]2O)n1)c1ccc(F)cc1 [Example 5226] | < 500 nM
22 | CO[C@@H](CNc1nc(C)c(-c2nc3c(C4CC4)nccc3s2)c(N[C@@H]2C[C@H](CO)[C@@H](O)[C@H]2O)n1)c1ccc(F)cc1 [Example 5227] | < 500 nM
23 | CO[C@@H](CNc1nc(C)c(-c2nc3cnccc3s2)c(N[C@@H]2C[C@H](C(C)(C)O)[C@@H](O)[C@H]2O)n1)c1ccc(F)cc1 [Example 5228] | < 500 nM
24 | CO[C@@H](CNc1nc(C)c(-c2nc3c(C)nccc3s2)c(N[C@@H]2C[C@H](C(C)(C)O)[C@@H](O)[C@H]2O)n1)c1ccc(F)cc1 [Example 5229] | < 500 nM
25 | CO[C@@H](CNc1nc(C)c(-c2nc3c(C)nccc3s2)c(N[C@@H]2C[C@H](CO)[C@@H](O)[C@H]2O)n1)C(F)(F)F [Example 5230] | < 500 nM
26 | CO[C@@H](CNc1nc(C)c(-c2nc3c(C4CC4)nccc3s2)c(N[C@@H]2C[C@H](CO)[C@@H](O)[C@H]2O)n1)C(F)(F)F [Example 5231] | < 500 nM
27 | CO[C@@H](CNc1nc(C)c(-c2nc3c(C)nccc3s2)c(N[C@@H]2C[C@H](C(C)(C)O)[C@@H](O)[C@H]2O)n1)C(F)(F)F [Example 5232] | < 500 nM
28 | CCO[C@@H](CNc1nc(C)c(-c2nc3c(C)nccc3s2)c(N[C@@H]2C[C@H](CO)[C@@H](O)[C@H]2O)n1)C(F)(F)F [Example 5233] | < 500 nM
29 | CCO[C@@H](CNc1nc(C)c(-c2nc3c(C4CC4)nccc3s2)c(N[C@@H]2C[C@H](CO)[C@@H](O)[C@H]2O)n1)C(F)(F)F [Example 5234] | < 500 nM
30 | CCO[C@@H](CNc1nc(C)c(-c2nc3c(C)nccc3s2)c(N[C@@H]2C[C@H](C(C)(C)O)[C@@H](O)[C@H]2O)n1)C(F)(F)F [Example 5235] | < 500 nM
31 | Cc1nc(NCc2c(F)cc(F)cc2F)nc(N[C@@H]2C[C@H](C3(O)CC3)[C@@H](O)[C@H]2O)c1-c1nc2c(C)nccc2s1 [Example 5236] | < 500 nM
32 | Cc1nc(NCCSC(C)(C)C)nc(N[C@@H]2C[C@H](C3(O)CC3)[C@@H](O)[C@H]2O)c1-c1nc2c(C)nccc2s1 [Example 5237] | < 500 nM
33 | CO[C@H](C)CNc1nc(C)c(-c2nc3c(C)nccc3s2)c(N[C@@H]2C[C@H](C3(O)CC3)[C@@H](O)[C@H]2O)n1 [Example 5238] | < 500 nM
34 | Cc1nc(NCC2CC2)nc(N[C@@H]2C[C@H](C3(O)CC3)[C@@H](O)[C@H]2O)c1-c1nc2c(C)nccc2s1 [Example 5239] | < 500 nM
35 | COC[C@@H](C)Nc1nc(C)c(-c2nc3c(C)nccc3s2)c(N[C@@H]2C[C@H](C3(O)CC3)[C@@H](O)[C@H]2O)n1 [Example 5240] | < 500 nM
36 | CSCCNc1nc(C)c(-c2nc3c(C)nccc3s2)c(N[C@@H]2C[C@H](C(C)(C)O)[C@@H](O)[C@H]2O)n1 [Example 5241] | < 500 nM
37 | Cc1nc(N)nc(N[C@@H]2C[C@H](C(C)(C)O)[C@@H](O)[C@H]2O)c1-c1nc2c(C)nccc2s1 [Example 5242] | < 500 nM
38 | CCOCCNc1nc(C)c(-c2nc3c(C)nccc3s2)c(N[C@@H]2C[C@H](C(O)(COC)COC)[C@@H](O)[C@H]2O)n1 [Example 5243] | < 500 nM
39 | COC[C@@H](C)Nc1nc(C)c(-c2nc3c(C)nccc3s2)c(N[C@@H]2C[C@H](C(O)(COC)COC)[C@@H](O)[C@H]2O)n1 [Example 5244] | < 500 nM

Row | Structure (SMILES) | EC90
40 | COCC(O)(COC)[C@H]1C[C@@H](Nc2nc(NC[C@@H](C)OC)nc(C)c2-c2nc3c(C)nccc3s2)[C@H](O)[C@@H]1O [Example 5245] | < 500 nM
41 | COCC(O)(COC)[C@H]1C[C@@H](Nc2nc(NCC3CC3)nc(C)c2-c2nc3c(C)nccc3s2)[C@H](O)[C@@H]1O [Example 5246] | < 500 nM
42 | COCC(O)(COC)[C@H]1C[C@@H](Nc2nc(NCc3c(F)cc(F)cc3F)nc(C)c2-c2nc3c(C)nccc3s2)[C@H](O)[C@@H]1O [Example 5247] | < 500 nM
43 | CCC(O)(CC)[C@H]1C[C@@H](Nc2nc(NCCSC(C)(C)C)nc(C)c2-c2nc3c(C)nccc3s2)[C@H](O)[C@@H]1O [Example 5248] | < 500 nM
44 | Cc1nc(NCCS(C)(=O)=O)nc(N[C@@H]2C[C@H](C(C)(C)O)[C@@H](O)[C@H]2O)c1-c1nc2c(C)nccc2s1 [Example 5249] | 500 to 5000 nM
45 | Cc1nc(NCCS(=O)(=O)C(C)(C)C)nc(N[C@@H]2C[C@H](C(C)(C)O)[C@@H](O)[C@H]2O)c1-c1nc2c(C)nccc2s1 [Example 5250] | < 500 nM
46 | CSCC[C@@H](CO)Nc1nc(C)c(-c2nc3c(C)nccc3s2)c(N[C@@H]2C[C@H](C(C)(C)O)[C@@H](O)[C@H]2O)n1 [Example 5251] | < 500 nM
47 | Cc1nc(NCc2cn(C)cn2)nc(N[C@@H]2C[C@H](C(C)(C)O)[C@@H](O)[C@H]2O)c1-c1nc2c(C)nccc2s1 [Example 5252] | < 500 nM
48 | CCSC[C@@H](C)Nc1nc(C)c(-c2nc3c(C)nccc3s2)c(N[C@@H]2C[C@H](C(C)(C)O)[C@@H](O)[C@H]2O)n1 [Example 5253] | < 500 nM
49 | Cc1nc(N[C@H](C)CSC(C)(C)C)nc(N[C@@H]2C[C@H](C(C)(C)O)[C@@H](O)[C@H]2O)c1-c1nc2c(C)nccc2s1 [Example 5254] | < 500 nM
50 | CCS[C@H](C)CNc1nc(C)c(-c2nc3c(C)nccc3s2)c(N[C@@H]2C[C@H](C(C)(C)O)[C@@H](O)[C@H]2O)n1 [Example 5255] | < 500 nM
51 | Cc1nc(N[C@H](C)COC(C)C)nc(N[C@@H]2C[C@H](C(C)(C)O)[C@@H](O)[C@H]2O)c1-c1nc2c(C)nccc2s1 [Example 5256] | < 500 nM
52 | COC1(CNc2nc(C)c(-c3nc4c(C)nccc4s3)c(N[C@@H]3C[C@H](C(C)(C)O)[C@@H](O)[C@H]3O)n2)CC1 [Example 5257] | < 500 nM
53 | Cc1nc(N)nc(N[C@@H]2C[C@H](CO)[C@@H](O)[C@H]2O)c1-c1nc2c(C3CC3)nccc2s1 [Example 5258] | < 500 nM
54 | Cc1nc(NC[C@@H](C)OC(C)C)nc(N[C@@H]2C[C@H](C(C)(C)O)[C@@H](O)[C@H]2O)c1-c1nc2c(C)nccc2s1 [Example 5259] | < 500 nM
55 | C#CCCNc1nc(C)c(-c2nc3c(C)nccc3s2)c(N[C@@H]2C[C@H](C(C)(C)O)[C@@H](O)[C@H]2O)n1 [Example 5260] | < 500 nM
56 | CSCCCNc1nc(C)c(-c2nc3c(C)nccc3s2)c(N[C@@H]2C[C@H](C(C)(C)O)[C@@H](O)[C@H]2O)n1 [Example 5261] | < 500 nM
57 | Cc1nc(NCCC(C)(C)C)nc(N[C@@H]2C[C@H](C(C)(C)O)[C@@H](O)[C@H]2O)c1-c1nc2c(C)nccc2s1 [Example 5262] | < 500 nM
